Reference: patent EP0730589B1, “ISOXAZOLINE COMPOUNDS USEFUL AS […] ANTAGONISTS” (THE DU PONT MERCK PHARMACEUTICAL COMPANY, priority 1993, dated 1995)

System: platelet aggregation
Assay: Platelet aggregation assay (platelet rich plasma, PRP)
Type: cell-based
Settings: inhibition of agonist-induced aggregation in human platelet rich plasma (PRP); ester prodrugs preincubated with porcine liver esterase, ADP-induced
Experimental: Platelet Aggregation Assay: Venous blood was obtained from the arm of a healthy human donor who was drug-free and aspirin-free for at least two weeks prior to blood collection. Blood was collected into 10 mL citrated vacutainer tubes. The blood was centrifuged for 15 minutes at 150 x g at room temperature, and platelet-rich plasma (PRP) was removed. The remaining blood was centrifuged for 15 minutes at 1500 x g at room temperature, and platelet-poor plasma (PPP) was removed. Samples were assayed on a aggregometer (PAP-4 Platelet Aggregation Profiler), using PPP as the blank (100% transmittance). 200 µL of PRP was added to each micro test tube, and transmittance was set to 0%. 20 µL of various agonists (ADP, collagen, arachidonate, epinephrine, thrombin) were added to each tube, and the aggregation profiles were plotted (% transmittance versus time). The results are expressed as % inhibition of agonist-induced platelet aggregation. For the IC50 evaluation, the test compounds were added at various concentrations prior to the activation of the platelets.
Ester prodrugs were preincubated (10^-3 M F.C.) with 100 IU/ml Porcine liver esterase (Sigma Chemical Co., St. Louis, MO, #E-3128) for 2 hours at 37 °C. Aliquots are then diluted in 0.1 M Tris, pH 7.4, to the desired concentrations. Aliquots of 20 µl of the esterase pretreated prodrugs are added to 200 µl of human platelet rich plasma. Samples were placed in platelet profiler (aggregometer) for 8 minutes at 37 °C, followed by the addition of 100 µM adenosine diphosphate (Sigma Chemical Co., St. Louis, MO, #A-6521), to induce platelet aggregation. Platelet aggregation was allowed to proceed for 5 minutes. Percent inhibition is calculated using percent aggregation in the presence of the test compound divided by percent aggregation of control, times 100. This value is subtracted from 100, yielding percent inhibition. Calculation of IC50 is performed on a Texas Instruments TI59 with an IC50 program.
Table 2 below sets forth the biological activity of representative compounds of the present invention. The indicated compounds were tested for their ability to inhibit platelet aggregation (using platelet rich plasma (PRP)). The IC50 value (the concentration of antagonist which inhibits platelet aggregation by 50% relative to a control lacking the antagonist) is shown. In Table 5 the IC50 values are expressed as: +++ = IC50 of <10 µM; ++ = ICso of 10-50 µM; + = IC50 of 50-100 µM (µM = micromolar).

Question: `N=C(N)c1ccc(C2=NOC(CC(=O)NCCC(=O)O)C2)cc1` (racemic) [Example 1, 5(R,S)-3-[3-(4-Amidinophenyl)isoxazolin-5-ylacetyl]aminopropanoic Acid] was tested. Which IC50 did it give?
Answer: The IC50 was < 10 µM.

Question: With `CNC(=N)c1ccc(C2=NOC(CC(=O)NCCC(=O)O)C2)cc1` (racemic) [Example 21] as the compound, how does the IC50 read?
Answer: Its IC50 is < 10 µM.

Question: How did the IC50 turn out when `CCCNC(=N)c1ccc(C2=NOC(CC(=O)NCCC(=O)O)C2)cc1` (racemic) [Example 25] was run?
Answer: The IC50 was < 10 µM.

Question: `CCCCNC(=N)c1ccc(C2=NOC(CC(=O)NCCC(=O)OCC)C2)cc1` (racemic) [Example 26, Ethyl 5(R,S)-3-[3-(4-N-n-Butylamidinophenyl)isoxazolin-5-ylacetyl]aminopropanoate] was tested. Which IC50 did it give?
Answer: Its IC50 is < 10 µM.

Question: For `CCCCNC(=N)c1ccc(C2=NOC(CC(=O)NCCC(=O)O)C2)cc1` (racemic) [Example 27], which IC50 is on record?
Answer: The IC50 was < 10 µM.

Question: `CCCCCNC(=N)c1ccc(C2=NOC(CC(=O)NCCC(=O)OCC)C2)cc1` (racemic) [Example 29] was tested. Which IC50 did it give?
Answer: Its IC50 is < 10 µM.

Question: Which IC50 does the source give for `CCOC(=O)CCNC(=O)CC1CC(c2ccc(C(=N)NCCC(C)C)cc2)=NO1` (racemic) [Example 31] here?
Answer: The IC50 was < 10 µM.

Question: Which IC50 does the source give for `CCCCCNC(=N)c1ccc(C2=NOC(CC(=O)NCCC(=O)O)C2)cc1` (stereo not drawn) [Example 28] here?
Answer: Its IC50 is < 10 µM.

Question: With `COC(=O)CCNC(=O)CC1CC(c2ccc(C(=N)NCc3ccccc3)cc2)=NO1` (stereo not drawn) [Example 32] as the compound, how does the IC50 read?
Answer: The IC50 was < 10 µM.
